Some test systems named below: DU-145 prostate; SNB-19 CNS; MDA-MB-435; NCI-H23 lung; T-47D breast; HCT-116 colon; SK-MEL-28 melanoma; SN12C renal; A549 NSCLC; CAKI-1 renal.
Experiment in all cases: DTP human tumour cell line panel, 48 h

The structures appear in SMILES notation. “And” between values parts separate entries of the source, which are not always exact repeats. Equal values may be shown once.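 Five compound concentrations were applied to cells in 96-well plates for 48 hours; endpoints were derived by simple linear interpolation of the resulting dose-response curve. GI50 = concentration required for 50% inhibition of growth. The concentration for full growth arrest is given as TGI.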

As for `CCOc1cc(C(C)(C)C)ccc1C1=N[C@H](c2ccc(Cl)cc2)[C@H](c2ccc(Cl)cc2)N1C(=O)N1CCN(CC#Cc2cccc3c2CN([C@@H]2CCC(=O)NC2=O)C3=O)CC1`, the GI50 was 4.87 µM in the experiment on DU-145 prostate; 2.1 µM in the experiment on SNB-19 CNS; 2.75 µM in the experiment on MDA-MB-435; 8.14 µM in the experiment on NCI-H23 lung; 0.0431 µM in the experiment on T-47D breast; 1.97 µM with HCT-116 colon. Moreover, the GI50 is 3.29 µM with SK-MEL-28 melanoma, 1.31 µM with SN12C renal, 1.1 µM with A549 NSCLC and 0.215 µM in the experiment on CAKI-1 renal. Moreover, the TGI was over 100 µM in the experiment on DU-145 prostate; over 58.8 µM in the experiment on SNB-19 CNS; over 53.8 µM with MDA-MB-435; over 100 µM in the experiment on NCI-H23 lung; 12.9 µM in the experiment with T-47D breast; over 36.3 µM with HCT-116 colon. For the same compound, the TGI with SK-MEL-28 melanoma is over 100 µM; with SN12C renal it was over 100 µM; in the experiment on A549 NSCLC it was over 43.1 µM; in the experiment with CAKI-1 renal, 9.59 µM.
In the case of `Oc1ccc2ccccc2c1N=Nc1cccc2ccccc12`, the concentration for total growth inhibition (TGI) with DU-145 prostate, in the experiment on SNB-19 CNS, with MDA-MB-435, in the experiment on NCI-H23 lung, with T-47D breast and in the experiment with HCT-116 colon was over 100 µM throughout. In addition, the concentration for total growth inhibition (TGI) in the experiment with SK-MEL-28 melanoma, with SN12C renal, in the experiment with A549 NSCLC and in the experiment on CAKI-1 renal was over 100 µM throughout.
In the case of `Cc1cn(C2CC(OC(=O)c3ccc(Cl)cc3)C(COC(=O)c3ccc(Cl)cc3)O2)c(=O)[nH]c1=O` (stereo not given), the TGI with DU-145 prostate, in the experiment on SNB-19 CNS, in the experiment with MDA-MB-435, with NCI-H23 lung, in the experiment with T-47D breast and in the experiment with HCT-116 colon was over 100 µM each time. Besides, the TGI with SK-MEL-28 melanoma, in the experiment with SN12C renal, in the experiment with A549 NSCLC and in the experiment with CAKI-1 renal was over 100 µM throughout.
As to `COc1ccc2c(c1)C(=O)/C(=C/c1cccc(OCC(=O)c3ccccc3)c1)O2`, the GI50 was 3.9 µM in the experiment on DU-145 prostate; 15 µM in the experiment with SNB-19 CNS; 3.4 µM with MDA-MB-435; 4.37 µM with NCI-H23 lung; 2.04 µM in the experiment on T-47D breast; 1.53 µM in the experiment with HCT-116 colon. The GI50 in the experiment with SK-MEL-28 melanoma was 4.76 µM; with SN12C renal, 6.15 µM; with A549 NSCLC it was 4.93 µM; in the experiment on CAKI-1 renal, 3.16 µM. Also, the TGI with DU-145 prostate turned out to be 13.7 µM; in the experiment on SNB-19 CNS, 29 µM; in the experiment on MDA-MB-435 it was 13.6 µM; in the experiment on NCI-H23 lung, 15.8 µM; with T-47D breast it was 4.88 µM; in the experiment with HCT-116 colon it was 2.96 µM. For the same compound, the TGI in the experiment with SK-MEL-28 melanoma amounted to 15.7 µM; in the experiment on SN12C renal, 25.6 µM; in the experiment with A549 NSCLC, 24.9 µM; in the experiment with CAKI-1 renal, 11.5 µM.
On to `Cc1nnc(-c2ccc(C)c(-c3ccc(C(=O)Nc4cccc(C#N)c4)cc3)c2)o1`, for which the GI50 in the experiment with DU-145 prostate was over 25 µM; in the experiment with SNB-19 CNS, over 25 µM; in the experiment on MDA-MB-435, over 25 µM; in the experiment on NCI-H23 lung, over 25 µM; in the experiment with T-47D breast, over 15.9 µM; in the experiment on HCT-116 colon, over 25 µM. For the same compound, the GI50 in the experiment on SK-MEL-28 melanoma, in the experiment on SN12C renal, in the experiment with A549 NSCLC and with CAKI-1 renal was over 25 µM throughout. The TGI with DU-145 prostate, in the experiment on SNB-19 CNS, in the experiment on MDA-MB-435, with NCI-H23 lung, in the experiment on T-47D breast and in the experiment on HCT-116 colon was over 25 µM in each case. The TGI in the experiment on SK-MEL-28 melanoma, in the experiment on SN12C renal, in the experiment with A549 NSCLC and with CAKI-1 renal was over 25 µM throughout.
Take `O=C1C(=O)c2ccccc2C(O)=C1C(C1=C(O)c2ccccc2C(=O)C1=O)c1ccc(Cl)cc1`: the TGI with DU-145 prostate is 10.3 µM; in the experiment with SNB-19 CNS it was 41.8 µM; in the experiment with MDA-MB-435, 3.38 µM; in the experiment on NCI-H23 lung, 27.8 µM; with T-47D breast, over 57.7 µM; in the experiment on HCT-116 colon it was 18.2 µM. Also, the TGI in the experiment with SK-MEL-28 melanoma was found to be 55.5 µM; with SN12C renal, 3.66 µM; in the experiment with A549 NSCLC it was 42.2 µM; with CAKI-1 renal it was 23.8 µM.
Take `CCOc1cccc(/C=N/NC(=O)c2cccc(Nc3ccnc(C(F)(F)F)c3)c2)c1O`: the GI50 in the experiment on DU-145 prostate is 1.1 µM; with SNB-19 CNS, 1.63 µM; in the experiment with MDA-MB-435 it was 3.1 µM; in the experiment on NCI-H23 lung, 1.62 µM; in the experiment with T-47D breast, 0.814 µM; in the experiment on HCT-116 colon, 0.477 µM. Moreover, the GI50 in the experiment with SK-MEL-28 melanoma was 2.31 µM; in the experiment on SN12C renal, 1.66 µM; in the experiment with A549 NSCLC, 3.73 µM; with CAKI-1 renal it was 0.772 µM. The TGI in the experiment with DU-145 prostate is over 47.3 µM; in the experiment on SNB-19 CNS it was over 100 µM; in the experiment on MDA-MB-435, over 51.2 µM; in the experiment with NCI-H23 lung it was 20.8 µM; in the experiment with T-47D breast it was 19 µM; with HCT-116 colon, over 69.4 µM. Also, the total growth inhibition concentration (TGI) in the experiment with SK-MEL-28 melanoma is 36.6 µM; with SN12C renal, over 70.7 µM; in the experiment with A549 NSCLC, over 100 µM; in the experiment on CAKI-1 renal, 32 µM.
As for `C=C(C)C1CC2(C)C(C)CC(O)CC2C(OC(=O)C=C(C)C)C1O` (stereo not given), the TGI with DU-145 prostate, in the experiment with SNB-19 CNS, in the experiment on MDA-MB-435, in the experiment on NCI-H23 lung, in the experiment on T-47D breast and in the experiment with HCT-116 colon was over 100 µM each time. Moreover, the TGI with SK-MEL-28 melanoma, with SN12C renal, in the experiment on A549 NSCLC and in the experiment on CAKI-1 renal was over 100 µM throughout.
On to `CCN(CC)CCCC(CCl)Nc1ccnc2cc(Cl)ccc12` (stereo not given), for which the GI50 in the experiment on DU-145 prostate was 49.6 µM and 47.1 µM; with SNB-19 CNS it was 94.8 µM and > 89.7 µM; with MDA-MB-435, 14.6 µM and 6.64 µM; with NCI-H23 lung it was 17.9 µM and 22.1 µM; in the experiment with T-47D breast it was 49.2 µM and 34.1 µM; in the experiment with HCT-116 colon it was 9.81 µM and 6.94 µM. The GI50 is 18.8 µM and 19 µM in the experiment on SK-MEL-28 melanoma; 52.1 µM and 48 µM in the experiment on SN12C renal; 20 µM and 27 µM in the experiment on A549 NSCLC; 22.1 µM and 16.2 µM in the experiment on CAKI-1 renal. Moreover, the TGI with DU-145 prostate is over 100 µM; with SNB-19 CNS it was over 100 µM; in the experiment on MDA-MB-435, 28.3 µM and 19.3 µM; in the experiment on NCI-H23 lung it was 38.3 µM and > 60.2 µM; with T-47D breast it was over 100 µM; in the experiment with HCT-116 colon it was 25.2 µM and 30.4 µM. In addition, the TGI in the experiment on SK-MEL-28 melanoma was 54.7 µM and > 63 µM; in the experiment on SN12C renal, over 100 µM; in the experiment on A549 NSCLC it was 55 µM and > 100 µM; in the experiment on CAKI-1 renal, 47.5 µM and 44.8 µM.

Broadly, the GI50 is the concentration that inhibits growth by half. As a reminder, the TGI is the concentration giving total growth inhibition.
